Measured values as given in US12479847B2 (DANA-FARBER CANCER INSTITUTE, INC., priority 2019, dated 2025).

How the values were obtained:
Assay in all cases: KINOMEscan (ScanMAX) kinase profiling
Type in all cases: binding
panel of 468 kinases [1] = biological target: T1, panel of 468 kinases (Homo sapiens, UniProt P10721, D816H); details: KIT(D816H); 1 μM; read-out: % control
T1 construct: purchased KINOMEscan (ScanMAX) service

panel of 468 kinases [2] = biological target: T2, panel of 468 kinases (Homo sapiens, UniProt O00238); details: BMPR1B; 1 μM; read-out: % control
T2 construct: purchased KINOMEscan (ScanMAX) service
T2 sequence (O00238 14-502): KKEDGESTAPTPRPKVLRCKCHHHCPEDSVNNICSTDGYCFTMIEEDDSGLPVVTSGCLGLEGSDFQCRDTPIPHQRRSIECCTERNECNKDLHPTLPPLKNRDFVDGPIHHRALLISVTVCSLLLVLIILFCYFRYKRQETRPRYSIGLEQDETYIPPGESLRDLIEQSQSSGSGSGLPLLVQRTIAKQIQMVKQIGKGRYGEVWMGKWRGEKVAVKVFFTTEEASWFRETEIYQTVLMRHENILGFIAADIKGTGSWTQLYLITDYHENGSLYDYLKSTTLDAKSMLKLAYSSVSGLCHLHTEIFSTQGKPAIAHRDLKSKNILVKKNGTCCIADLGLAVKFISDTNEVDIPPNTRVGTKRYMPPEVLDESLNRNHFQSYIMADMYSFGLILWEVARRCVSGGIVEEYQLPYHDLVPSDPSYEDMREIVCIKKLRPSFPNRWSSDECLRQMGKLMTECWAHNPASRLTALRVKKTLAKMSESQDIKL

panel of 468 kinases [3] = biological target: T3, panel of 468 kinases (Homo sapiens, UniProt Q13557); details: CAMK2D; 1 μM; read-out: % control
T3 construct: purchased KINOMEscan (ScanMAX) service
T3 sequence (Q13557 whole entry): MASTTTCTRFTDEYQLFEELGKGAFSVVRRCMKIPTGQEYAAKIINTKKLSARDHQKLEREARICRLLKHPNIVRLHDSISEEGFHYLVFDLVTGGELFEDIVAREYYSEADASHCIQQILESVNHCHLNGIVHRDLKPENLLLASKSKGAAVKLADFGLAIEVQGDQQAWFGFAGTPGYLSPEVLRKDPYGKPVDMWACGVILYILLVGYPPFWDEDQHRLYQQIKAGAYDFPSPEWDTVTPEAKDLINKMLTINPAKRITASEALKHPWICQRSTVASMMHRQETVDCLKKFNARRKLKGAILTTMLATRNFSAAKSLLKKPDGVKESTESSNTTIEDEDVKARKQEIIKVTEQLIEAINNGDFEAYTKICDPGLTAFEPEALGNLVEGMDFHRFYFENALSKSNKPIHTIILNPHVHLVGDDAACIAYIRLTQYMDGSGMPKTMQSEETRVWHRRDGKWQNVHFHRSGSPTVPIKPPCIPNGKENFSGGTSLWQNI

panel of 468 kinases [4] = biological target: T4, panel of 468 kinases (Homo sapiens, UniProt P32298); details: GRK4; 1 μM; read-out: % control
T4 construct: purchased KINOMEscan (ScanMAX) service
T4 sequence (P32298 whole entry): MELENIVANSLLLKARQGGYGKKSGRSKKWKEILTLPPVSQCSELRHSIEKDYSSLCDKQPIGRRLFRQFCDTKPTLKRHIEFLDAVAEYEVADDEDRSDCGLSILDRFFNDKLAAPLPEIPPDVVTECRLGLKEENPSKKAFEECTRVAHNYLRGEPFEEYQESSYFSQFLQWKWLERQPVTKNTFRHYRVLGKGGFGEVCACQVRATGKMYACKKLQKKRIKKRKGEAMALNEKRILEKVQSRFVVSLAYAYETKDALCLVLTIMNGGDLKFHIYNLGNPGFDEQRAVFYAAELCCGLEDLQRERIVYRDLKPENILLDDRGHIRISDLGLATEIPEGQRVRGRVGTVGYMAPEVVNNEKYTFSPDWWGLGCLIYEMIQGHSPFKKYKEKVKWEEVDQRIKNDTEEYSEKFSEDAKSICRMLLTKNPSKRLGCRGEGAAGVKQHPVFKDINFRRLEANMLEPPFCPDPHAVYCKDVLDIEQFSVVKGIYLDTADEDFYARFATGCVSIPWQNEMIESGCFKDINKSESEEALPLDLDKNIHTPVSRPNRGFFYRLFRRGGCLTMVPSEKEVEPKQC

panel of 468 kinases [5] = biological target: T5, panel of 468 kinases (Homo sapiens, UniProt Q9UEE5); details: DRAK1; 1 μM; read-out: % control
T5 construct: purchased KINOMEscan (ScanMAX) service
T5 sequence (Q9UEE5 1-414): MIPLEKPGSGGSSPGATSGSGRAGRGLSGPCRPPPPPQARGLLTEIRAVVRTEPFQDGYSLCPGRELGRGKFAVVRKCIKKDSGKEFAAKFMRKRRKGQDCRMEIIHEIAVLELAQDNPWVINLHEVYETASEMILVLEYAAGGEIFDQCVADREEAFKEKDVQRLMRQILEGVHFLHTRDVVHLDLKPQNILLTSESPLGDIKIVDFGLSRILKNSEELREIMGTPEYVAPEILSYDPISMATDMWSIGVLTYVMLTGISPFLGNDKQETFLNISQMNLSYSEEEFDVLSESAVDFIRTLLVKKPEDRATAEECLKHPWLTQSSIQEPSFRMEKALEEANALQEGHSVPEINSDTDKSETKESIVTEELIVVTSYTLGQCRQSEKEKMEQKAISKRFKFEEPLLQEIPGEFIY

panel of 468 kinases [6] = biological target: T6, panel of 468 kinases (Homo sapiens, UniProt Q06187); details: BTK; 1 μM; read-out: % control
T6 construct: purchased KINOMEscan (ScanMAX) service
T6 sequence (Q06187 whole entry): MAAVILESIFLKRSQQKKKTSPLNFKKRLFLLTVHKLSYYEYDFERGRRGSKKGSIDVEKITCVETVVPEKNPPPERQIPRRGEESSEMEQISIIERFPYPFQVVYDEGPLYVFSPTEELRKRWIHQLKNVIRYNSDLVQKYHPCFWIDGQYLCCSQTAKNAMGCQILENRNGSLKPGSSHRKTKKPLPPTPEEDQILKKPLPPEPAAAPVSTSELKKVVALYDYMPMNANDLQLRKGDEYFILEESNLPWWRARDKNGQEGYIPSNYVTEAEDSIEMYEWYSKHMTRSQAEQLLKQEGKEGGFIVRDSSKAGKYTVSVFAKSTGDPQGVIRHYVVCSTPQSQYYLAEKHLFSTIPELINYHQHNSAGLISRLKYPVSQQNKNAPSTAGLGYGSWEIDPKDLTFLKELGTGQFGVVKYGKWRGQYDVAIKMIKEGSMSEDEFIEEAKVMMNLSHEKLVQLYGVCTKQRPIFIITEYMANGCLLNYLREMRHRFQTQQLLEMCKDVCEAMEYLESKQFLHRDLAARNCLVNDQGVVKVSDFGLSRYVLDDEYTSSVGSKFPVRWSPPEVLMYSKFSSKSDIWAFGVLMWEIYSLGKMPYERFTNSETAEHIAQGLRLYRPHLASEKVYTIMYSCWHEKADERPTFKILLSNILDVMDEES

panel of 468 kinases [7] = biological target: T7, panel of 468 kinases (Homo sapiens, UniProt P53671); details: LIMK2; 1 μM; read-out: % control
T7 construct: purchased KINOMEscan (ScanMAX) service
T7 sequence (P53671 whole entry): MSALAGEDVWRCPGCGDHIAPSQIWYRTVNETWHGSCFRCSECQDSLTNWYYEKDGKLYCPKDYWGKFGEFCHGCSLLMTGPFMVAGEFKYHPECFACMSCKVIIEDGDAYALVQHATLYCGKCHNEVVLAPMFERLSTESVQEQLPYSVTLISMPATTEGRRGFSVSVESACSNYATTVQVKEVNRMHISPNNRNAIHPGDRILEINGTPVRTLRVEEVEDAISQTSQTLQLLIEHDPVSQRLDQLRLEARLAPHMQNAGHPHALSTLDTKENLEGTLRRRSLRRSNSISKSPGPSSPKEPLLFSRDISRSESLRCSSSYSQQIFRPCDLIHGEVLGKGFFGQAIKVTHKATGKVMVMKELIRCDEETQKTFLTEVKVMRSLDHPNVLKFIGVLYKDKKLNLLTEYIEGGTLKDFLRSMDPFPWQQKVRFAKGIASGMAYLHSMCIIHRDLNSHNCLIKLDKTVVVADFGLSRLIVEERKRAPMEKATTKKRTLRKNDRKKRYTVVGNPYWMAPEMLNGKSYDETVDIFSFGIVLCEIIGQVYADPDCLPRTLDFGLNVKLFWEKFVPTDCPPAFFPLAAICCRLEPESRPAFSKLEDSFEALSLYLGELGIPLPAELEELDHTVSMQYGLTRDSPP

panel of 468 kinases [8] = biological target: T8, panel of 468 kinases (Homo sapiens, UniProt Q9BXA7); details: TSSK1B; 1 μM; read-out: % control
T8 construct: purchased KINOMEscan (ScanMAX) service
T8 sequence (Q9BXA7 1-367): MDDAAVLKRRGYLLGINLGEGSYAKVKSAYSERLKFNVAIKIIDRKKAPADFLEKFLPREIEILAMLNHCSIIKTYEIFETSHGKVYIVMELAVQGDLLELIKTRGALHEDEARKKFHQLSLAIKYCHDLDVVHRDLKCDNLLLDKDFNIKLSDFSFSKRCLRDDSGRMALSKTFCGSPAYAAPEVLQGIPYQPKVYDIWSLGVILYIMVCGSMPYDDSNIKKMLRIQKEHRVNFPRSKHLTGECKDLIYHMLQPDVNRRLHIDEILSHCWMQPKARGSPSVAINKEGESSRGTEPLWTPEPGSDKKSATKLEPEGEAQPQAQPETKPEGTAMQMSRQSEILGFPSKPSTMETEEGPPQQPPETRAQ

panel of 468 kinases [9] = biological target: T9, panel of 468 kinases (Homo sapiens, UniProt P11362); details: FGFR1; 1 μM; read-out: % control
T9 construct: purchased KINOMEscan (ScanMAX) service
T9 sequence (P11362 22-822): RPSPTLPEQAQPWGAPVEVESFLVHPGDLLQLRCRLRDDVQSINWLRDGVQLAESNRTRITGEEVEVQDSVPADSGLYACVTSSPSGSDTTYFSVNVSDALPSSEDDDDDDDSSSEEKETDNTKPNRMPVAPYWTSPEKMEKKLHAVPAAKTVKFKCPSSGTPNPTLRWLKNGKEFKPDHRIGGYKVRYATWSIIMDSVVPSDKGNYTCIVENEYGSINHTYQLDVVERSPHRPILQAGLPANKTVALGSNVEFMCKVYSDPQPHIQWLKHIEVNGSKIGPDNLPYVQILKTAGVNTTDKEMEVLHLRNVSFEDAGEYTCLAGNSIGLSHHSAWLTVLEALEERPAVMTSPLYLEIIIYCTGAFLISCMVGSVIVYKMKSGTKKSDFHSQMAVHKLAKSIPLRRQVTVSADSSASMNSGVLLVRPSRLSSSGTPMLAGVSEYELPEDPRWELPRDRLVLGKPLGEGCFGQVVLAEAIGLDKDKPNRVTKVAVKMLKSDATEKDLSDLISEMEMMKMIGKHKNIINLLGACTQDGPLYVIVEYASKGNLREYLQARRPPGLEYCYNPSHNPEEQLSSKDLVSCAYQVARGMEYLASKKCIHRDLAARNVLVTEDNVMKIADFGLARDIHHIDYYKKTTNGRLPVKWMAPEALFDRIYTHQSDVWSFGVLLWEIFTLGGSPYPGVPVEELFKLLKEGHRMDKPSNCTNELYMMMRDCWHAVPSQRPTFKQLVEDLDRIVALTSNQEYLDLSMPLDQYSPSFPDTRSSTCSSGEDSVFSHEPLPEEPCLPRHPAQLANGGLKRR

panel of 468 kinases [10] = biological target: T10, panel of 468 kinases (Homo sapiens, UniProt Q9UHD2); details: TBK1; 1 μM; read-out: % control
T10 construct: purchased KINOMEscan (ScanMAX) service
T10 sequence (Q9UHD2 1-729): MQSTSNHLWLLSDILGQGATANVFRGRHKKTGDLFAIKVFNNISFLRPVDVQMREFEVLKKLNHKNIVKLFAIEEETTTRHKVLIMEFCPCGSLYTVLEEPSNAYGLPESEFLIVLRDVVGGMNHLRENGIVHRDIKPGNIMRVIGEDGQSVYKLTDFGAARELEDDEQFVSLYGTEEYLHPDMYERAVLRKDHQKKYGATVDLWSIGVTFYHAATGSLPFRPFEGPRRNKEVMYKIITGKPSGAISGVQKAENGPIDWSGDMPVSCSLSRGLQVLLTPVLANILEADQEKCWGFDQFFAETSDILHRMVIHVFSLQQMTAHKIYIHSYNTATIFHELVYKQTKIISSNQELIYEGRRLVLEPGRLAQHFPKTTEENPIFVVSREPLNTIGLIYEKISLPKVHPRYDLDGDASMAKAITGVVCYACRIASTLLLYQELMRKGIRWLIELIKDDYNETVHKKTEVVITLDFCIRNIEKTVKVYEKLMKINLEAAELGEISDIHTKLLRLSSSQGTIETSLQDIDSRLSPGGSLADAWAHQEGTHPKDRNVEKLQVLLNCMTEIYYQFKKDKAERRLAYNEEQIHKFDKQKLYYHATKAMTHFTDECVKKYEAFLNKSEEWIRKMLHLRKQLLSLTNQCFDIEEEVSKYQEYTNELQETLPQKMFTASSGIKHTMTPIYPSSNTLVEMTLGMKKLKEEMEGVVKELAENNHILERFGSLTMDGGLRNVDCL

T1 sequence (P10721 26-976 D816H): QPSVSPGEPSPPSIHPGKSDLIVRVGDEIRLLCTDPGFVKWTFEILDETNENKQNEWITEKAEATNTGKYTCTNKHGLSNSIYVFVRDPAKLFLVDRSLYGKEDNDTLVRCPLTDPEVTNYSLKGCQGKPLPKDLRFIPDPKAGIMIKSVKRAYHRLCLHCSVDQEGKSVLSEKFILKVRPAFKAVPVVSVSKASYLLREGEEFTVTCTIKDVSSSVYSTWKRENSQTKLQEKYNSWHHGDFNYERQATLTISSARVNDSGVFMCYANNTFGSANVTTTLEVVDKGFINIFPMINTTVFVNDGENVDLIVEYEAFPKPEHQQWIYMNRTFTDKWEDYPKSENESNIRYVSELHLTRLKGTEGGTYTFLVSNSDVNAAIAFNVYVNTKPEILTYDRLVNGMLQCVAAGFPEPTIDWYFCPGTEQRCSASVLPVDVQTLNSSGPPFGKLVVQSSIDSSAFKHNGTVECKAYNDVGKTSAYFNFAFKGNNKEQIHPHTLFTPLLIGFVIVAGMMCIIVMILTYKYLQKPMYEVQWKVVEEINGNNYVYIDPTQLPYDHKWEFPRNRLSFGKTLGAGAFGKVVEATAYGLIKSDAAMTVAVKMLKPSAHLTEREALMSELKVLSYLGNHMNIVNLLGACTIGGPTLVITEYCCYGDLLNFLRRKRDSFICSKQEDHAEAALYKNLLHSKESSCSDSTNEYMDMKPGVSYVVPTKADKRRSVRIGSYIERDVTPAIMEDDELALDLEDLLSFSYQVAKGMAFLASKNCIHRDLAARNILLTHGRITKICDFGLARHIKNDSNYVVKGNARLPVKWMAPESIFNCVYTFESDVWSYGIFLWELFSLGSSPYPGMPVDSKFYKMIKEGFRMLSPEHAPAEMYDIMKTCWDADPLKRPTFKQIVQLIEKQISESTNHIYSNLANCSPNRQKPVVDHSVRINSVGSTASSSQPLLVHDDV

| SMILES | remaining binding at 1 µM (panel of 468 kinases [1]) | remaining binding at 1 µM (panel of 468 kinases [2]) | remaining binding at 1 µM (panel of 468 kinases [3]) | remaining binding at 1 µM (panel of 468 kinases [4]) | remaining binding at 1 µM (panel of 468 kinases [5]) | remaining binding at 1 µM (panel of 468 kinases [6]) | remaining binding at 1 µM (panel of 468 kinases [7]) | remaining binding at 1 µM (panel of 468 kinases [8]) | remaining binding at 1 µM (panel of 468 kinases [9]) | remaining binding at 1 µM (panel of 468 kinases [10]) |
| --- | --- | --- | --- | --- | --- | --- | --- | --- | --- | --- |
| CNc1nc(Nc2ccc(C(=O)N3CCC(N4CCOCC4)CC3)c3c2OCO3)nc2[nH]cc(Cl)c12 [Compound 75, (7-((5-chloro-4-(methylamino)-7H-pyrrolo[2,3-d]pyrimidin-2-yl)amino)benzo[d][1,3]dioxol-4-yl)(4-morpholinopiperidin-1-yl)methanone] | 99% | 67% | 89% | 41% | 2.8% | 98% | 99% | 49% | 94% | 34% |
| CNc1nc(Nc2ccc(S(=O)(=O)N3CCC(N4CCOCC4)CC3)cc2OC)nc2[nH]cc(Cl)c12 [Compound 12, 5-chloro-N2-(2-methoxy-4-((4-morpholinopiperidin-1-yl)sulfonyl)phenyl)-N4-methyl-7H-pyrrolo[2,3-d]pyrimidine-2,4-diamine] | 100% | 76% | 96% | 100% | 100% | 79% | 100% | 72% | 89% | 95% |
| CNc1nc(Nc2ccc(P3(=O)CCN(C4CCOCC4)CC3)cc2OC)nc2[nH]cc(Cl)c12 [Compound 77, 4-(4-((5-chloro-4-(methylamino)-7H-pyrrolo[2,3-d]pyrimidin-2-yl)amino)-3-methoxyphenyl)-1-(tetrahydro-2H-pyran-4-yl)-1,4-azaphosphinane 4-oxide] | 93% | 80% | 89% | 95% | 95% | 100% | 84% | 33% | 100% | 85% |
